From patent publication US9227971B2, “Pyrazolo[1,5-a]pyrimidine compounds as mTOR inhibitors” (Merck Sharp & Dohme Corp., priority 2010, dated 2016) come the findings set out here.

Molecules are shown by their SMILES. Like-named read-outs stand apart in the source and are kept apart here.

In test [1] the test system is phosphorylated 4E-BP1 Thr37/46 (p4E-BP1 Thr37/46), mTORC1 activity, PC3 cells. Put plainly: mTOR target engagement assay, immunofluorescent cell-based, p4E-BP1 Thr37/46 readout (mTORC1 activity). The note with it: Homo sapiens, read-out: p4E-BP1 Thr37/46 IC50. Put shortly:
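Seed PC3 cells overnight; treat with compound dilutions for ninety minutes at 37° C; fix with glyoxal and block; stain with anti-p4E-BP1 Thr37/46 overnight at 4° C, then fluorescent secondary; read fluorescence and fit IC50 against DMSO-only controls.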

Test [2] has as its system phosphorylated AKT Ser473 (pAKT S473), mTORC2 activity, PC3 cells. As to the kind of experiment: mTOR target engagement assay, immunofluorescent cell-based, pAKT S473 readout (mTORC2 activity). The note with it: Homo sapiens. In a few lines: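 After blocking, cells were stained overnight at 4 °C with anti-pAKT S473 antibody, then a fluorescent secondary; inhibition was read as reduced fluorescence intensity.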

Where [3] appears, read: PC-3, PC3 cells, compound treatment ninety minutes at 37° C.

`COc1ccc(-c2ncc(-c3cnn4c(N)c(S(C)(=O)=O)c([C@@H]5C[C@H]6CC[C@@H](C5)N6C(=O)c5nnc[nH]5)nc34)cn2)c(F)c1F` [Compound 3.148, ((1R,3s,5S)-3-(7-amino-3-(2-(2,3-difluoro-4-methoxyphenyl)pyrimidin-5-yl)-6-(methylsulfonyl)pyrazolo[1,5-a]pyrimidin-5-yl)-8-azabicyclo[3.2.1]octan-8-yl)(4H-1,2,4-triazol-3-yl)methanone]: the IC50 lay in the range of 100 to 1000 nM in test [1] (PC-3, Table 3-1, PC3 cells) and 100 to 1000 nM in test [2] (PC-3, Table 3-1, PC3 cells).
For the compound `Nc1c(CO)c([C@@H]2C[C@H]3CC[C@@H](C2)N3C(=O)c2nnc[nH]2)nc2c(-c3ccc(-c4ccccc4)nc3)cnn12` [Compound 5.7, ((1R,3s,5S)-3-(7-amino-6-(hydroxymethyl)-3-(6-phenylpyridin-3-yl)pyrazolo[1,5-a]pyrimidin-5-yl)-8-azabicyclo[3.2.1]octan-8-yl)(4H-1,2,4-triazol-3-yl)methanone], the IC50 in test [1] (setting [3]) and in test [2] (setting [3]) was 1 to 100 nM each time.
Take `[2H]C([2H])([2H])Oc1ccc(-c2ccc(-c3cnn4c(N)c(C(C)=O)c([C@@H]5C[C@H]6CC[C@@H](C5)N6C(=O)c5nnc[nH]5)nc34)cn2)cc1` [Compound 1.1.77, 1-(5-((1R,3s,5S)-8-(4H-1,2,4-triazole-3-carbonyl)-8-azabicyclo[3.2.1]octan-3-yl)-7-amino-3-(6-(4-methoxy-(D3)-phenyl)pyridin-3-yl)pyrazolo[1,5-a]pyrimidin-6-yl)ethanone]: the IC50 in test [1] (setting [3]) and in test [2] (setting [3]) was 1 to 100 nM in each case.
Consider `CC(=O)c1c([C@@H]2C[C@H]3CC[C@@H](C2)N3C(=O)c2nnc[nH]2)nc2c(-c3ccc(-c4cc[nH]n4)nc3)cnn2c1N` [Compound 1.1.74, 1-(3-(6-(1H-pyrazol-3-yl)pyridin-3-yl)-5-((1R,3s,5S)-8-(4H-1,2,4-triazole-3-carbonyl)-8-azabicyclo[3.2.1]octan-3-yl)-7-aminopyrazolo[1,5-a]pyrimidin-6-yl)ethanone], for which the IC50 in test [1] (setting [3]) and in test [2] (setting [3]) was 1 to 100 nM in each case.
Regarding `CC(=O)c1c(N2C3CCC2CN(C(=O)c2nnc[nH]2)C3)nc2c(-c3ccc(-c4ccccc4)nc3)cnn2c1N` [Compound 8.5, 1-(5-(3-(4H-1,2,4-triazole-3-carbonyl)-3,8-diazabicyclo[3.2.1]octan-8-yl)-7-amino-3-(6-phenylpyridin-3-yl)pyrazolo[1,5-a]pyrimidin-6-yl)ethanone], the IC50 in test [1] (PC-3, PC3 cells) was in the range of 1000 to 10000 nM; in test [2] (PC-3, PC3 cells) it was 100 to 1000 nM.
In the case of `CC(=O)c1c([C@@H]2C[C@H]3CC[C@@H](C2)N3C(=O)CO)nc2c(-c3ccc(-c4ccn(CF)n4)nc3)cnn2c1N` [Compound 1.1.87, 1-((1R,3s,5S)-3-(6-acetyl-7-amino-3-(6-(1-(fluoromethyl)-1H-pyrazol-3-yl)pyridin-3-yl)pyrazolo[1,5-a]pyrimidin-5-yl)-8-azabicyclo[3.2.1]octan-8-yl)-2-hydroxyethanone], the IC50 in test [1] (setting [3]) and in test [2] (setting [3]) was 1 to 100 nM throughout.
In the case of `CS(=O)(=O)c1c([C@@H]2C[C@H]3CC[C@@H](C2)N3S(=O)(=O)c2nnc[nH]2)nc2c(-c3ccc(-c4ccccc4)nc3)cnn2c1N` [Compound 3.26, 5-((1R,3s,5S)-8-(4H-1,2,4-triazol-3-ylsulfonyl)-8-azabicyclo[3.2.1]octan-3-yl)-6-(methylsulfonyl)-3-(6-phenylpyridin-3-yl)pyrazolo[1,5-a]pyrimidin-7-amine], the IC50 lay within 1000 to 10000 nM in test [1] (PC-3, Table 3-1, PC3 cells) and 100 to 1000 nM in test [2] (PC-3, Table 3-1, PC3 cells).
As for `CC(=O)c1c(N2C3CCC2CN(C(=O)[C@@H](C)O)C3)nc2c(-c3ccc(-c4ccccc4)nc3)cnn2c1N` [Compound 8.6, (2R)-1-(8-(6-acetyl-7-amino-3-(6-phenylpyridin-3-yl)pyrazolo[1,5-a]pyrimidin-5-yl)-3,8-diazabicyclo[3.2.1]octan-3-yl)-2-hydroxypropan-1-one], the IC50 in test [1] (PC-3, PC3 cells) lay within 1000 to 10000 nM; in test [2] (PC-3, PC3 cells), 100 to 1000 nM.
Turning to `Nc1c(C2CC2)c([C@@H]2C[C@H]3CC[C@@H](C2)N3C(=O)CO)nc2c(-c3ccc(C4(O)CCC4)nc3)cnn12` [Compound 7.72, 1-((1R,3s,5S)-3-(7-amino-6-cyclopropyl-3-(6-(1-hydroxycyclobutyl)pyridin-3-yl)pyrazolo[1,5-a]pyrimidin-5-yl)-8-azabicyclo[3.2.1]octan-8-yl)-2-hydroxyethanone], the IC50 in test [1] (PC-3, PC3 cells) fell in the range of 100 to 1000 nM; in test [2] (PC-3, PC3 cells), 100 to 1000 nM.
Consider `Nc1cc([C@@H]2C[C@H]3CC[C@@H](C2)N3C(=O)c2nnc[nH]2)nc2c(-c3cnc4[nH]ccc4c3)cnn12` [Compound 2.13, ((1R,3s,5S)-3-(7-amino-3-(1H-pyrrolo[2,3-b]pyridin-5-yl)pyrazolo[1,5-a]pyrimidin-5-yl)-8-azabicyclo[3.2.1]octan-8-yl)(1H-1,2,4-triazol-5-yl)methanone], for which the IC50 in test [1] (setting [3]) and in test [2] (setting [3]) was 1000 to 10000 nM each time.
As for `COc1nnc(C(=O)N2C3CCC2CC(c2nc4c(-c5ccc(-c6ccccc6)nc5)cnn4c(N)c2C2CC2)C3)[nH]1` [Compound 8.103, ((1R,3s,5S)-3-(7-amino-6-cyclopropyl-3-(6-phenylpyridin-3-yl)pyrazolo[1,5-a]pyrimidin-5-yl)-8-azabicyclo[3.2.1]octan-8-yl)(5-methoxy-4H-1,2,4-triazol-3-yl)methanone], the IC50 in test [1] (PC-3, PC3 cells) lay within 100 to 1000 nM; in test [2] (PC-3, PC3 cells), 100 to 1000 nM.
Regarding `CS(=O)(=O)c1c([C@@H]2C[C@H]3CC[C@@H](C2)N3C(=O)c2nnc[nH]2)nc2c(-c3ccc(-c4ccccn4)cc3)cnn2c1N` [Compound 3.31, ((1R,3s,5S)-3-(7-amino-6-(methylsulfonyl)-3-(4-(pyridin-2-yl)phenyl)pyrazolo[1,5-a]pyrimidin-5-yl)-8-azabicyclo[3.2.1]octan-8-yl)(4H-1,2,4-triazol-3-yl)methanone], the IC50 in test [1] (PC-3, Table 3-1, PC3 cells) was in the range of 100 to 1000 nM; in test [2] (PC-3, Table 3-1, PC3 cells), 1 to 100 nM.
On the same counts, the results for `CC(=O)N1[C@@H]2CC[C@H]1C[C@H](c1nc3c(-c4ccc(-c5csc(C)n5)nc4)cnn3c(N)c1S(C)(=O)=O)C2` [Compound 3.200, 1-((1R,3s,5S)-3-(7-amino-6-(methylsulfonyl)-3-(6-(2-methylthiazol-4-yl)pyridin-3-yl)pyrazolo[1,5-a]pyrimidin-5-yl)-8-azabicyclo[3.2.1]octan-8-yl)ethanone] are 1000 to 10000 nM and 1000 to 10000 nM.
For `CC(=O)c1c([C@@H]2C[C@H]3CC[C@@H](C2)N3C(=O)c2nnc(N)[nH]2)nc2c(-c3ccc(-n4cc(C)cn4)nc3)cnn2c1N` [Compound 1.1.130, 1-(7-amino-5-((1R,3s,5S)-8-(5-amino-4H-1,2,4-triazole-3-carbonyl)-8-azabicyclo[3.2.1]octan-3-yl)-3-(6-(4-methyl-1H-pyrazol-1-yl)pyridin-3-yl)pyrazolo[1,5-a]pyrimidin-6-yl)ethanone], the IC50 in test [1] (setting [3]) and in test [2] (setting [3]) was 1 to 100 nM throughout.
Turning to `CC(=O)c1c([C@@H]2C[C@H]3CC[C@@H](C2)N3C(=O)c2nnc(C)[nH]2)nc2c(-c3ccc(-c4ccccc4F)nc3)cnn2c1N` [Compound 1.1.173, 1-(7-amino-3-(6-(2-fluorophenyl)pyridin-3-yl)-5-((1R,3s,5S)-8-(5-methyl-4H-1,2,4-triazole-3-carbonyl)-8-azabicyclo[3.2.1]octan-3-yl)pyrazolo[1,5-a]pyrimidin-6-yl)ethanone], the IC50 in test [1] (setting [3]) and in test [2] (setting [3]) was 1 to 100 nM each time.
